From US7638623B2, “Galactoside inhibitors of galectins” (Forskarpatent I SYD AB, priority 2004, dated 2009)

Experiments:
galectin-3 = biological target: T1, galectin-3 (Homo sapiens, UniProt P17931); experiment: fluorescence polarization-based galectin-3 inhibition assay; assay type: binding; settings: read-out: Calculated Kd
T1 construct: made in house; host or cells: Escherichia coli
Experimental: NMR-spectra were recorded with a Bruker DRX-400 instrument. Chemical shifts are given in ppm, with reference to internal residual solvent peaks. Chemical shifts and coupling constants were obtained from ^1H-NMR and proton resonances were assigned from COSY experiments. High-resolution FAB mass spectra (HRMS) were recorded with a JEOL SX-120 instrument. Fluorescence polarization experiments were performed on a PolarStar instrument (BMG, Offenburg; Germany). Column chromatography was performed on SiO2 (Matrex, 60 Å, 35-70 μm, Grace Amicon) and TLC was carried out on SiO2 60 F254 (Merck) with detection under UV light and developed with aqueous sulfuric acid. Concentrations were made using rotary evaporation with bath temperature at or below 40° C. CH2Cl2 and CH3CN were dried by distillation from CaH2.
To 100 μL of galectin-3 (1 μM) and a fluorescent probe (2-(fluorescein-5/6-yl-carbonyl)-aminoethyl 4-O-[3-O-(4-methoxylbenzyl)-β-D-galactopyranosyl]-β-D-glucopyranoside, 0.1 μM) were added inhibitor solution (3.2-80 μM, 100 μL), the plate was incubated under slow rotary shaking in the dark for 5 minutes, and fluorescence polarization measured at room temperature. The fluorescence was measured from above in 96 well microtiter plates (black polystyrene, Costar, Corning, N.Y.) using a PolarStar instrument (BMG, Offenburg; Germany). Control wells containing only fluorescent probe or fluorescein were included. All dilutions and measurements were done in PBS.

galectins = settings: cited from earlier work

T1 sequence (P17931 whole entry): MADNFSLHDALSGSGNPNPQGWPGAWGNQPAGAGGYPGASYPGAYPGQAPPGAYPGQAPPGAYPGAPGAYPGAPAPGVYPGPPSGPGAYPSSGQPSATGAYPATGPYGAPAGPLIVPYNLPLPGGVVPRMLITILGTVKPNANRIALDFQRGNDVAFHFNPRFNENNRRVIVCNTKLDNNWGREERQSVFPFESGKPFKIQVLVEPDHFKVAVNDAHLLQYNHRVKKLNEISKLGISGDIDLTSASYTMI

Compound	Kd (galectin-3)	also measured
O=C(N[C@H]1[C@@H](O)[C@@H](CO)O[C@@H](S[C@@H]2O[C@H](CO)[C@H](O)[C@H](NC(=O)c3ccccc3)[C@H]2O)[C@@H]1O)c1ccccc1 [Compound 17, Bis-(3-deoxy-3-benzamido-β-D-galactopyranosyl) sulfane]	1.44 µM	
COc1cc(OC)cc(C(=O)NC2C(O)[C@H](S[C@@H]3OC(CO)[C@H](O)C(NC(=O)c4cc(OC)cc(OC)c4)C3O)OC(CO)[C@@H]2O)c1 (stereo partly drawn) [Compound 19, Bis-[3-deoxy-(3,5-dimethoxybenzamido)-β-D-galactopyranosyl]sulfane]	0.02 µM	
O=C(N[C@H]1[C@@H](O)[C@@H](CO)O[C@@H](S[C@@H]2O[C@H](CO)[C@H](O)[C@H](NC(=O)c3ccc([N+](=O)[O-])cc3)[C@H]2O)[C@@H]1O)c1ccc([N+](=O)[O-])cc1 [Compound 20, Bis-[3-deoxy-3-(4-nitrobenzamido)-β-D-galactopyranosyl]sulfane]	0.05 µM	
O=C(N[C@H]1[C@@H](O)[C@@H](CO)O[C@@H](S[C@@H]2O[C@H](CO)[C@H](O)[C@H](NC(=O)c3ccc4ccccc4c3)[C@H]2O)[C@@H]1O)c1ccc2ccccc2c1 [Compound 21, Bis-[3-deoxy-3-(2-naphthamido)-β-D-galactopyranosyl]sulfane]	0.03 µM	
CO[C@@H]1OC(CO)[C@@H](O[C@@H]2OC(CO)[C@H](O)C(O)C2O)C(O)C1NC(C)=O (stereo partly drawn) [Compound 22, methyl β-glycoside of N-acetyllactosamine, reference compound]	52 µM	
O=C[C@H](O)[C@@H](O)[C@@H](O)[C@H](O)CO [D-galactose]		affinity, times lower than lactose (galectins; relative to lactose): 50-100 times
OC[C@H]1O[C@@H](O[C@H]2[C@H](O)[C@@H](O)C(O)O[C@@H]2CO)[C@H](O)[C@@H](O)[C@H]1O (stereo partly shown) [lactose]		Kd (galectins; all galectins): 500 to 1000 µM
